Results reported in patent US10710978B2, “STK4 inhibitors for treatment of hematologic malignancies” (Dana-Farber Cancer Institute, Inc., priority 2015, dated 2020).
Like-named read-outs stand apart in the source and are kept apart here.

Tests used:
Test in all cases: KiNativ assay
Assay type in all cases: binding
PAN3 = PAN3 (Homo sapiens (Human), UniProt Q58A45); conditions: H929 live cell
Method: (§1) Biochemical IC50s of the compounds of the present disclosure against various kinases were measured in a KiNativ assay. Compounds were screened in duplicate at 10 μM in H929 live cell. IC50 was measured via Mass spectroscopy (MS).

PI4KB = PI4KB (Homo sapiens (Human), UniProt Q9UBF8); conditions: H929 live cell
Sequence of PI4KB (Q9UBF8 whole entry): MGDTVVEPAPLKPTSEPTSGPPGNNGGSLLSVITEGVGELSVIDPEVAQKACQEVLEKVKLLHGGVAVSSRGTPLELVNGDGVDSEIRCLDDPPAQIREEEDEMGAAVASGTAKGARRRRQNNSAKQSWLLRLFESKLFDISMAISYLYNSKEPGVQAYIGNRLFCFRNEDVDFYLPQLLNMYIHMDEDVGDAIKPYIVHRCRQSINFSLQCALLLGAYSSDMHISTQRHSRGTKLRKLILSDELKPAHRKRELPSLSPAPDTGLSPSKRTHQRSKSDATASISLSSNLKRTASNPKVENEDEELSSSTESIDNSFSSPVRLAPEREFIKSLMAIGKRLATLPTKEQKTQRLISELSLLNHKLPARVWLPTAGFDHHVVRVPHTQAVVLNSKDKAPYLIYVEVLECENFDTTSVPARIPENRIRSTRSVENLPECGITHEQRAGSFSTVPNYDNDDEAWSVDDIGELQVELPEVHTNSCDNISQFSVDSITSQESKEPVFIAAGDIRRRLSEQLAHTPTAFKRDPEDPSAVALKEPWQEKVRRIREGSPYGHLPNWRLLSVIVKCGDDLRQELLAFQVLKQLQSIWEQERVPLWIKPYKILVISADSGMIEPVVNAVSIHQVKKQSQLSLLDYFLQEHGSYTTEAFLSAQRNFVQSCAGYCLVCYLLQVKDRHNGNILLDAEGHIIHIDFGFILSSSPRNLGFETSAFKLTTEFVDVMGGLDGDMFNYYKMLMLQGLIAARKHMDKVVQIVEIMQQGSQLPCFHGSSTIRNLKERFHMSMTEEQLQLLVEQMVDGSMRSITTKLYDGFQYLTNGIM
Method: as §1

[1] = tested on: CaMK2a, CaMK2b, CaMK2d, CaMK2g; conditions: H929 live cell
Method: as §1

MAP3K2 = MAP3K2 (Homo sapiens (Human), UniProt Q9Y2U5); conditions: H929 live cell
Method: as §1

TLK1 = TLK1 (Homo sapiens (Human), UniProt Q9UKI8); conditions: H929 live cell
Method: as §1

MARK1, MARK2 = conditions: H929 live cell
Method: as §1

PEK = PEK (Homo sapiens (Human), UniProt Q9NZJ5); conditions: H929 live cell
Sequence of PEK (Q9NZJ5 30-1116): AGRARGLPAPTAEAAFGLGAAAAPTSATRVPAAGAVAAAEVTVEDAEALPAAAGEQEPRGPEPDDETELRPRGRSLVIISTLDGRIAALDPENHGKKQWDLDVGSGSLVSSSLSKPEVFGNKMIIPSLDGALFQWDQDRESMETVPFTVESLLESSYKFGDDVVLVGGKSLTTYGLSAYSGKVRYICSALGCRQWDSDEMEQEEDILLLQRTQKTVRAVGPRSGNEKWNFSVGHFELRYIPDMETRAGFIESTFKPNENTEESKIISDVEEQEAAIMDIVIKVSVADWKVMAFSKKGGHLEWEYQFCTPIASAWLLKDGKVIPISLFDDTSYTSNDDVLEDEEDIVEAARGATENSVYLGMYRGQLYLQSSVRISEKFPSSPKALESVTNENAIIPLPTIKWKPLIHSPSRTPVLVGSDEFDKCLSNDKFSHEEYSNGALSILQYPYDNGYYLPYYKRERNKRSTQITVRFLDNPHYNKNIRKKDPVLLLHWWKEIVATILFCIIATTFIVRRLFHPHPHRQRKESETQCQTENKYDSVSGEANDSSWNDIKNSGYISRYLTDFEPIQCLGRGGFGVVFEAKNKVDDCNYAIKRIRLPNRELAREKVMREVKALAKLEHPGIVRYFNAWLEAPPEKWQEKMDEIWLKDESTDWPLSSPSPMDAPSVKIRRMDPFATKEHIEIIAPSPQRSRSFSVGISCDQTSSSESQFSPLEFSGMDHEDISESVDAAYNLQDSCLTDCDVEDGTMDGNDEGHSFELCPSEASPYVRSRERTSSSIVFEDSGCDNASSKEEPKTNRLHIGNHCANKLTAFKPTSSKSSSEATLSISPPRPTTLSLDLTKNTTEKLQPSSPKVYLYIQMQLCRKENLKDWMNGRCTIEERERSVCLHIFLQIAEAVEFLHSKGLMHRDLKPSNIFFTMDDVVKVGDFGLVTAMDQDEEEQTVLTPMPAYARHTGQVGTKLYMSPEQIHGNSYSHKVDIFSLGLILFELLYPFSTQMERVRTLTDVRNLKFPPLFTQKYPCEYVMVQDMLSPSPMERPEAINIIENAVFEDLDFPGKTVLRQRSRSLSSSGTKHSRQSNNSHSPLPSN
Method: as §1

ZAK = ZAK (Homo sapiens (Human), UniProt Q9NYL2); conditions: H929 live cell
Method: as §1

Erk1 = Erk1 (Homo sapiens (Human), UniProt P27361); conditions: H929 live cell
Method: as §1

FER = FER (Homo sapiens (Human), UniProt P16591); conditions: H929 live cell
Sequence of FER (P16591 whole entry): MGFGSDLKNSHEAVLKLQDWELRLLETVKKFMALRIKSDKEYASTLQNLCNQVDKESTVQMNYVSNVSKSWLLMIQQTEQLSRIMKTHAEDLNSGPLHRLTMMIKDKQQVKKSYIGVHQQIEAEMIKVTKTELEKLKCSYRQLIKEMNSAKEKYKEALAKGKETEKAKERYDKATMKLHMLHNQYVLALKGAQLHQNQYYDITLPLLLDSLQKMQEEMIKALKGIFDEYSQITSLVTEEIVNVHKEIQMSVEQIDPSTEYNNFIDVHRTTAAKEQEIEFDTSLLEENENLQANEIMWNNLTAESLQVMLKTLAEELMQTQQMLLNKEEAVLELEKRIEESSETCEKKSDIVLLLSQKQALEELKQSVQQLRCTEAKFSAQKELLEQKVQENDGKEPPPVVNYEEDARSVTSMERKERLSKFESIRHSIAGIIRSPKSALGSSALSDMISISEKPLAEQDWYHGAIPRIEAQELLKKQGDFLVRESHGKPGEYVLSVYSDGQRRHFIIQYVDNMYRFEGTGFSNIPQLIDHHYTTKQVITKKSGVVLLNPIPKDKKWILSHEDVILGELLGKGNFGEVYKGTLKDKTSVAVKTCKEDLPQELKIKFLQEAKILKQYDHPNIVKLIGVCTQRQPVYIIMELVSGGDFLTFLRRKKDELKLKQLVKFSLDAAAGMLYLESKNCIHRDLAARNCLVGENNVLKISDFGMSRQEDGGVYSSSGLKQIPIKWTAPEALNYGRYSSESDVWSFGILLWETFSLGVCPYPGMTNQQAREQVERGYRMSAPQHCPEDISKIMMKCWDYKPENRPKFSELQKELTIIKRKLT
Method: as §1

MASTL = MASTL (Homo sapiens (Human), UniProt Q96GX5); conditions: H929 live cell
Method: as §1

NDR1 = NDR1 (Homo sapiens (Human), UniProt Q15208); conditions: H929 live cell
Method: as §1

NEK3 = NEK3 (Homo sapiens (Human), UniProt P51956); conditions: H929 live cell
Method: as §1

PHKg2 = PHKg2 (Homo sapiens (Human), UniProt P15735); conditions: H929 live cell
Sequence of PHKg2 (P15735 whole entry): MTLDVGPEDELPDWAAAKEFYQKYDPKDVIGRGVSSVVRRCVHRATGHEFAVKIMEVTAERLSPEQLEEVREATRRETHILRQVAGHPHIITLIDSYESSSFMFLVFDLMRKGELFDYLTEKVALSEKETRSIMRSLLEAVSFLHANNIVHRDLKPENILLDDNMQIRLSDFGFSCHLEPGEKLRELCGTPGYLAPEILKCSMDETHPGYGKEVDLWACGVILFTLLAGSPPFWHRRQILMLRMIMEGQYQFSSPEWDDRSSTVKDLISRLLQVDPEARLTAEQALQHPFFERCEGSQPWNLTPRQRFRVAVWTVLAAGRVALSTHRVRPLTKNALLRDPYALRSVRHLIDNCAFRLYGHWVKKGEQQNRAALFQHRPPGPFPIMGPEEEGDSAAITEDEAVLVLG
Method: as §1

eEF2K = eEF2K (Homo sapiens (Human), UniProt O00418); conditions: H929 live cell
Method: as §1

IRAK1 = IRAK1 (Homo sapiens (Human), UniProt P51617); conditions: H929 live cell
Method: as §1

BRAF = BRAF (Homo sapiens (Human), UniProt P15056); conditions: H929 live cell
Method: as §1

MAP2K1 = MAP2K1 (Homo sapiens (Human), UniProt Q02750); conditions: H929 live cell
Method: as §1

MAP2K6 = MAP2K6 (Homo sapiens (Human), UniProt P52564); conditions: H929 live cell
Method: as §1

PIP4K2A = PIP4K2A (Homo sapiens (Human), UniProt P48426); conditions: H929 live cell
Sequence of PIP4K2A (P48426 whole entry): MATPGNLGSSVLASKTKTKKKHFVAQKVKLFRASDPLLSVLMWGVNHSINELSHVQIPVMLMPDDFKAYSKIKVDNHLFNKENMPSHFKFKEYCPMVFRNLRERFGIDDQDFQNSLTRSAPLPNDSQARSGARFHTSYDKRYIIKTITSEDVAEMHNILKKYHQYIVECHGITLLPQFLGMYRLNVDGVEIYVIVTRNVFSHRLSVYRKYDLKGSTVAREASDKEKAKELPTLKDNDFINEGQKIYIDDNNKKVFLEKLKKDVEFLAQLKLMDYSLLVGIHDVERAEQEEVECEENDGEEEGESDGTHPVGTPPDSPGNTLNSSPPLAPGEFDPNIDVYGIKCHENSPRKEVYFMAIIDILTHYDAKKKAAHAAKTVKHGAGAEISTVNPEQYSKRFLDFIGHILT
Method: as §1

PITSLRE = conditions: H929 live cell
Method: as §1

SRPK2 = SRPK2 (Homo sapiens (Human), UniProt P78362); conditions: H929 live cell
Method: as §1

MAP2K1, MAP2K2 = conditions: 10 μM, H929 live cell
Method: as §1

MST4 = conditions: H929 live cell
Method: as §1

RSKL1 = RSKL1 (Homo sapiens (Human), UniProt Q96S38); conditions: H929 live cell
Method: as §1

PKD3 = PKD3 (Homo sapiens (Human), UniProt O94806); conditions: H929 live cell
Sequence of PKD3 (O94806 whole entry): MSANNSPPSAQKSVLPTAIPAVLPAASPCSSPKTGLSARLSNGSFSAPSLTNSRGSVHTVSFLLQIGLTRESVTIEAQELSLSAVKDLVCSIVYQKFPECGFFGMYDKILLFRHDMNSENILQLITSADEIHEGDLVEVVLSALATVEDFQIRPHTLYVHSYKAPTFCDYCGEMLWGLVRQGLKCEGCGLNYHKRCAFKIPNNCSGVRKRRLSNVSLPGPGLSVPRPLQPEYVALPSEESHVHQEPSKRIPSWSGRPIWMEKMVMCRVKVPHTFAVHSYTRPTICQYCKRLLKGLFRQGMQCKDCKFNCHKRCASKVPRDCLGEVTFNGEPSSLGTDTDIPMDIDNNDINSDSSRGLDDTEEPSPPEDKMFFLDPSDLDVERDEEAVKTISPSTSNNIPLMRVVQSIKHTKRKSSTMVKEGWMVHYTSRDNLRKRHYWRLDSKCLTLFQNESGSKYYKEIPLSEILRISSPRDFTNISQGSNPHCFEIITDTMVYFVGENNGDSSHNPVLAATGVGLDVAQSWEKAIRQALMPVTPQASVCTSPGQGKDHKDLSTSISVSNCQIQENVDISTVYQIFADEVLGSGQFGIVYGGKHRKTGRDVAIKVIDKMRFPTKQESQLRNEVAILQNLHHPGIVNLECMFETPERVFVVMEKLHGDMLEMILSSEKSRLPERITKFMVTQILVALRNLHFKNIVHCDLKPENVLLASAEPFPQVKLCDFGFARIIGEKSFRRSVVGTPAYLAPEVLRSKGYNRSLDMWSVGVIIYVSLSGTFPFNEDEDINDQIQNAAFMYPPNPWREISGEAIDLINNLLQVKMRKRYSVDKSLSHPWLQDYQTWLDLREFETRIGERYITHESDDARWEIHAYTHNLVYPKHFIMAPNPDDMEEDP
Method: as §1

MARK4 = MARK4 (Homo sapiens (Human), UniProt Q96L34); conditions: H929 live cell
Method: as §1

HPK1 = HPK1 (Homo sapiens (Human), UniProt Q92918); conditions: H929 live cell
Method: as §1

MARK2 = MARK2 (Homo sapiens (Human), UniProt Q7KZI7); conditions: H929 live cell
Method: as §1

CDK11, CDK8 = conditions: H929 live cell
Method: as §1

IKKe, TBK1 = conditions: H929 live cell
Method: as §1

NuaK2 = NuaK2 (Homo sapiens (Human), UniProt Q9H093); conditions: H929 live cell
Method: as §1

AurA, AurB, AurC = conditions: H929 live cell
Method: as §1

CHK1 = CHK1 (Homo sapiens (Human), UniProt O14757); conditions: H929 live cell
Sequence of CHK1 (O14757 whole entry): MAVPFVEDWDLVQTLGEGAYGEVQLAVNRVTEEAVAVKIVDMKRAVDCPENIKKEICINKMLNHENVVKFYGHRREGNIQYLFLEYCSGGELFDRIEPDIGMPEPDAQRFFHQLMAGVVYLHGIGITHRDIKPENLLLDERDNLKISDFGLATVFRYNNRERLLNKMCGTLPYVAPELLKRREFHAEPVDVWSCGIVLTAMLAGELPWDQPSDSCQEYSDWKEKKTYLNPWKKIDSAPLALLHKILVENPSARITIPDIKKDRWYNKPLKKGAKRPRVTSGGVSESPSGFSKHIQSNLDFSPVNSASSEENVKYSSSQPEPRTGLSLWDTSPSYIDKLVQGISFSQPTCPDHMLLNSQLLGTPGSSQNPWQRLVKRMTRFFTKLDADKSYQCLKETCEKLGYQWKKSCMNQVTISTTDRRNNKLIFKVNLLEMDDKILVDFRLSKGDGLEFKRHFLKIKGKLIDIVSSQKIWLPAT
Method: as §1

Nc1ncc(-c2cccc([N+](=O)[O-])c2F)cc1-c1ccc2c(c1)CCNC2=O [Compound I-9, 6-(2-amino-5-(2-fluoro-3-nitrophenyl)pyridin-3-yl)-3,4-dihydroisoquinolin-1(2H)-one] showed an inhibition at 10 µM (PAN3; read-out: % inhibition (range)) of 0%, an inhibition at 10 µM (PAN3; read-out: inhibition (10 μM)) of -7.1% and an inhibition at 10 µM (PI4KB; read-out: % inhibition (range)) of 0%. The inhibition at 10 µM (PI4KB; read-out: inhibition (10 μM)) was -13.8%, the “% inhibition (range)” value ([1]; 10 μM) was 0.0% and the “inhibition (10 μM)” value [1] was 3.3%. The inhibition at 10 µM (MAP3K2; read-out: % inhibition (range)) was 0%, the inhibition at 10 µM (MAP3K2; read-out: inhibition (10 μM)) was 0.3% and the inhibition at 10 µM (TLK1; read-out: % inhibition (range)) was 0%. For the same compound, the inhibition at 10 µM (TLK1; read-out: inhibition (10 μM)) was 28.8%, the “% inhibition (range)” value (MARK1, MARK2; 10 μM) was 35-50% and the “inhibition (10 μM)” value (MARK1, MARK2) was 40.7%. The inhibition at 10 µM (PEK; read-out: % inhibition (range)) was > 100%, the inhibition at 10 µM (PEK; read-out: inhibition (10 μM)) was -100% and the inhibition at 10 µM (ZAK; read-out: % inhibition (range)) was 35 to 50%. For the same compound, the inhibition at 10 µM (ZAK; read-out: inhibition (10 μM)) was 42%, the inhibition at 10 µM (Erk1; read-out: % inhibition (range)) was 50 to 75% and the inhibition at 10 µM (Erk1; read-out: inhibition (10 μM)) was 50.5%. It also gave an inhibition at 10 µM (FER; read-out: % inhibition (range)) of 0%, an inhibition at 10 µM (FER; read-out: inhibition (10 μM)) of 27.4% and an inhibition at 10 µM (MASTL; read-out: % inhibition (range)) of 0%. The inhibition at 10 µM (MASTL; read-out: inhibition (10 μM)) was -18.4%, the inhibition at 10 µM (NDR1; read-out: % inhibition (range)) was 0% and the inhibition at 10 µM (NDR1; read-out: inhibition (10 μM)) was 3.5%. The inhibition at 10 µM (NEK3; read-out: % inhibition (range)) was 0%, the inhibition at 10 µM (NEK3; read-out: inhibition (10 μM)) was -42.8% and the inhibition at 10 µM (PHKg2; read-out: % inhibition (range)) was 0%. For the same compound, the inhibition at 10 µM (PHKg2; read-out: inhibition (10 μM)) was -30.7%, the inhibition at 10 µM (eEF2K; read-out: % inhibition (range)) was 0% and the inhibition at 10 µM (eEF2K; read-out: inhibition (10 μM)) was -94.7%. For the same compound, the inhibition at 10 µM (IRAK1; read-out: % inhibition (range)) was 75 to 90%, the inhibition at 10 µM (IRAK1; read-out: inhibition (10 μM)) was 82.6% and the inhibition at 10 µM (BRAF; read-out: % inhibition (range)) was 0%. For the same compound, the inhibition at 10 µM (BRAF; read-out: inhibition (10 μM)) was 3.3%, the inhibition at 10 µM (MAP2K1; read-out: % inhibition (range)) was 0% and the inhibition at 10 µM (MAP2K1; read-out: inhibition (10 μM)) was -55.8%. For the same compound, the inhibition at 10 µM (MAP2K6; read-out: % inhibition (range)) was 0%, the inhibition at 10 µM (MAP2K6; read-out: inhibition (10 μM)) was 6.8% and the inhibition at 10 µM (PIP4K2A; read-out: % inhibition (range)) was 0%. The inhibition at 10 µM (PIP4K2A; read-out: inhibition (10 μM)) was 10.2%, the “% inhibition (range)” value (PITSLRE; 10 μM) was 35-50% and the “inhibition (10 μM)” value (PITSLRE) was 38.9%. For the same compound, the inhibition at 10 µM (SRPK2; read-out: % inhibition (range)) was 0%, the inhibition at 10 µM (SRPK2; read-out: inhibition (10 μM)) was 18.9% and the “% inhibition (range)” value (MAP2K1, MAP2K2) was 0.0%. The “inhibition (10 μM)” value (MST4) was 47.0%, the inhibition at 10 µM (RSKL1; read-out: % inhibition (range)) was 0% and the inhibition at 10 µM (RSKL1; read-out: inhibition (10 μM)) was 0.2%. For the same compound, the inhibition at 10 µM (PKD3; read-out: % inhibition (range)) was 50 to 75%, the inhibition at 10 µM (PKD3; read-out: inhibition (10 μM)) was 74.2% and the inhibition at 10 µM (MARK4; read-out: % inhibition (range)) was 75 to 90%. The inhibition at 10 µM (MARK4; read-out: inhibition (10 μM)) was > 75%, the inhibition at 10 µM (HPK1; read-out: % inhibition (range)) was > 90% and the inhibition at 10 µM (HPK1; read-out: inhibition (10 μM)) was 97.5%. The inhibition at 10 µM (MARK2; read-out: % inhibition (range)) was 50 to 75%, the inhibition at 10 µM (MARK2; read-out: inhibition (10 μM)) was 63.5% and the “inhibition (10 μM)” value (CDK11, CDK8) was 35.5%. For the same compound, the “% inhibition (range)” value (IKKe, TBK1; 10 μM) was 0.0%, the “inhibition (10 μM)” value (IKKe, TBK1) was 21.2% and the inhibition at 10 µM (NuaK2; read-out: % inhibition (range)) was 50 to 75%. For the same compound, the inhibition at 10 µM (NuaK2; read-out: inhibition (10 μM)) was 58.7%, the “% inhibition (range)” value (AurA, AurB, AurC; 10 μM) was 50-75% and the “inhibition (10 μM)” value (AurA, AurB, AurC) was 66.2%. For the same compound, the inhibition at 10 µM (CHK1; read-out: % inhibition (range)) was 0% and the inhibition at 10 µM (CHK1; read-out: inhibition (10 μM)) was 14.9%.
